Solubility (mole fraction) data for three compounds are collected here from BigSolDB 2.1.

For the data set the following is noted: in n-hexane.

As usually defined, the solubility (mole fraction) is the moles of solute divided by all moles in the saturated solution. Regarding `Fc1ccc(N=C2[Se]CC3CCCN2C3)cc1` (stereo not given), the solubility (mole fraction) came out at 0.00115 (293.15 K); 0.00121 (298.15 K); 0.00128 (303.15 K); 0.00134 (308.15 K); 0.00143 (313.15 K).
The like results for `Cc1ccc(N=C2[Se]CC3CCCN2C3)cc1Cl` (stereo not given) were, in that order, 0.000536, 0.000551, 0.000567, 0.000581 and 0.000595.
The like results for `CC(C)c1ccc(N=C2[Se]CC3CCCN2C3)cc1` (stereo not given) were, in that order, 0.000481, 0.00056, 0.000643, 0.000725 and 0.000819.
